pIC50: −log10 of the molar value. Where “and” joins values, the source holds several entries; their conditions need not be identical. Equal entries are not always repeated. Blank lines part the entries; values can stand above or below the compound they belong to.
Test system: 463943-066-T-J2-PDC complex spheroid growth
Assay: Anticancer human tumor 463943-066-T-J2-PDC patient-derived colon adenocarcinoma cell line growth inhibition [Asc]
Settings: for viability, T/C: stronger effect = lower value
Procedure, shortened: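 Complex spheroids combining tumor cells with HUVEC endothelial cells and human MSCs, at 37 degrees C, 5% CO2; agents tested alone or combined, half-log dilutions from at or near clinical Cmax, or 10 microM if Cmax unknown.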

[1] = curve of first compound, second compound 0.0316 µM
[2] = curve of first compound, second compound 0.1 µM
[3] = curve of first compound, second compound 0.316 µM
[4] = curve of first compound, second compound 1 µM
[5] = second compound 0.0316 µM, first compound 0.00316 µM
[6] = second compound 0.0316 µM, first compound 0.01 µM
[7] = second compound 0.0316 µM, first compound 0.0316 µM
[8] = second compound 0.0316 µM, first compound 0.1 µM
[9] = second compound 0.0316 µM, first compound 0.316 µM
[10] = second compound 0.0316 µM, first compound 1 µM
[11] = second compound 0.1 µM, first compound 0.00316 µM
[12] = second compound 0.1 µM, first compound 0.01 µM
[13] = second compound 0.1 µM, first compound 0.0316 µM
[14] = second compound 0.1 µM, first compound 0.1 µM
[15] = second compound 0.1 µM, first compound 0.316 µM
[16] = second compound 0.1 µM, first compound 1 µM
[17] = second compound 0.316 µM, first compound 0.00316 µM
[18] = second compound 0.316 µM, first compound 0.01 µM
[19] = second compound 0.316 µM, first compound 0.0316 µM
[20] = second compound 0.316 µM, first compound 0.1 µM
[21] = second compound 0.316 µM, first compound 0.316 µM
[22] = second compound 0.316 µM, first compound 1 µM
[23] = second compound 1 µM, first compound 0.00316 µM
[24] = second compound 1 µM, first compound 0.01 µM
[25] = second compound 1 µM, first compound 0.0316 µM
[26] = second compound 1 µM, first compound 0.1 µM
[27] = second compound 1 µM, first compound 0.316 µM
[28] = second compound 1 µM, first compound 1 µM
[29] = curve of first compound, second compound 3.16 µM
[30] = curve of first compound, second compound 10 µM
[31] = second compound 3.16 µM, first compound 0.0316 µM
[32] = second compound 3.16 µM, first compound 0.1 µM
[33] = second compound 3.16 µM, first compound 0.316 µM
[34] = second compound 3.16 µM, first compound 1 µM
[35] = second compound 10 µM, first compound 0.0316 µM
[36] = second compound 10 µM, first compound 0.1 µM
[37] = second compound 10 µM, first compound 0.316 µM
[38] = second compound 10 µM, first compound 1 µM
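Note: compound exposure lasted 7 days.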
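Throughout, for viability, T/C: 100% = DMSO vehicle control wells.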

Compound: CCN1CCN(Cc2ccc(Nc3ncc(F)c(-c4cc(F)c5nc(C)n(C(C)C)c5c4)n3)nc2)CC1 + CNC(C)C(=O)NC1CN(S(=O)(=O)c2cccc(S(=O)(=O)N3CCC4CCC(C(=O)NC(c5ccccc5)c5ccccc5)N4C(=O)C(NC(=O)C(C)NC)C3)c2)CCC2CCC(C(=O)NC(c3ccccc3)c3ccccc3)N2C1=O
pIC50 (curve of first compound, second compound 0.00316 µM): < 6.00 | pIC50 (curve of first compound, second compound 0.01 µM): < 6.00 | pIC50 [1]: < 6.00 | pIC50 [2]: < 6.00 | pIC50 [3]: < 6.00 | pIC50 [4]: < 6.00 | viability, T/C (second compound 0.00316 µM, first compound 0.00316 µM): 87.7% | viability, T/C (second compound 0.00316 µM, first compound 0.01 µM): 92.7% | viability, T/C (second compound 0.00316 µM, first compound 0.0316 µM): 88% | viability, T/C (second compound 0.00316 µM, first compound 0.1 µM): 93.6% | viability, T/C (second compound 0.00316 µM, first compound 0.316 µM): 109% | viability, T/C (second compound 0.00316 µM, first compound 1 µM): 120% | viability, T/C (second compound 0.01 µM, first compound 0.00316 µM): 99.2% | viability, T/C (second compound 0.01 µM, first compound 0.01 µM): 102% | viability, T/C (second compound 0.01 µM, first compound 0.0316 µM): 99.8% | viability, T/C (second compound 0.01 µM, first compound 0.1 µM): 92.2% | viability, T/C (second compound 0.01 µM, first compound 0.316 µM): 123% | viability, T/C (second compound 0.01 µM, first compound 1 µM): 121% | viability, T/C [5]: 103% | viability, T/C [6]: 108% | viability, T/C [7]: 94.9% | viability, T/C [8]: 101% | viability, T/C [9]: 116% | viability, T/C [10]: 128% | viability, T/C [11]: 89% | viability, T/C [12]: 92.3% | viability, T/C [13]: 89.6% | viability, T/C [14]: 95.5% | viability, T/C [15]: 113% | viability, T/C [16]: 110% | viability, T/C [17]: 92.3% | viability, T/C [18]: 103% | viability, T/C [19]: 99.7% | viability, T/C [20]: 89.6% | viability, T/C [21]: 109% | viability, T/C [22]: 118% | viability, T/C [23]: 88.8% | viability, T/C [24]: 92.5% | viability, T/C [25]: 84% | viability, T/C [26]: 94% | viability, T/C [27]: 120% | viability, T/C [28]: 117%

Compound: NC1CCC(NC2CC2c2ccccc2)CC1 (stereo not given)
viability, T/C (compound 0.000316 µM): 89.8% and 86.8% | viability, T/C (compound 0.001 µM): 94.3% and 87.5% | viability, T/C (compound 0.00316 µM): 87.3% and 94.4% | viability, T/C (compound 0.01 µM): 92.6% and 95.7% | viability, T/C (compound 0.0316 µM): 94.2% and 88.1% | viability, T/C (compound 0.1 µM): 86.1% and 94.9% | pIC50 (curve of compound): < 7.00

Compound: C=CC(=O)N1CCN(c2nc(=O)n(-c3c(C)ccnc3C(C)C)c3nc(-c4c(O)cccc4F)c(F)cc23)C(C)C1 (stereo not given) + Cc1c(S(C)(=O)=O)c(-c2cc(F)cc(N3CCN(c4ccc(NS(=O)(=O)c5ccc(NC(CCN6CCC(C(=O)OCCCP(=O)(O)O)CC6)CSc6ccccc6)c(S(=O)(=O)C(F)(F)F)c5)cc4)CC3)c2)c(-c2ccc(Cl)cc2)n1C(C)C
pIC50 [1]: < 5.00 | pIC50 [2]: < 5.00 | pIC50 [3]: < 5.00 | pIC50 [4]: < 5.00 | pIC50 [29]: < 5.00 | pIC50 [30]: 5.15 | viability, T/C [7]: 84.9% | viability, T/C [8]: 92.3% | viability, T/C [9]: 91% | viability, T/C [10]: 96.1% | viability, T/C (second compound 0.0316 µM, first compound 3.16 µM): 100% | viability, T/C (second compound 0.0316 µM, first compound 10 µM): 78.3% | viability, T/C [13]: 95% | viability, T/C [14]: 89.7% | viability, T/C [15]: 91.4% | viability, T/C [16]: 93.6% | viability, T/C (second compound 0.1 µM, first compound 3.16 µM): 91.9% | viability, T/C (second compound 0.1 µM, first compound 10 µM): 84.4% | viability, T/C [19]: 83.8% | viability, T/C [20]: 90% | viability, T/C [21]: 85.3% | viability, T/C [22]: 87.3% | viability, T/C (second compound 0.316 µM, first compound 3.16 µM): 86.8% | viability, T/C (second compound 0.316 µM, first compound 10 µM): 83% | viability, T/C [25]: 74% | viability, T/C [26]: 75.6% | viability, T/C [27]: 75.3% | viability, T/C [28]: 77% | viability, T/C (second compound 1 µM, first compound 3.16 µM): 72% | viability, T/C (second compound 1 µM, first compound 10 µM): 64.4% | viability, T/C [31]: 57.8% | viability, T/C [32]: 59.4% | viability, T/C [33]: 60.1% | viability, T/C [34]: 65% | viability, T/C (second compound 3.16 µM, first compound 3.16 µM): 66% | viability, T/C (second compound 3.16 µM, first compound 10 µM): 54.2% | viability, T/C [35]: 51.5% | viability, T/C [36]: 48.2% | viability, T/C [37]: 52.9% | viability, T/C [38]: 50.6% | viability, T/C (second compound 10 µM, first compound 3.16 µM): 52.1% | viability, T/C (second compound 10 µM, first compound 10 µM): 47.9%

The next lines start with results.

pIC50 (curve of compound): < 5.00
Compound: C#Cc1c(F)ccc2cc(O)cc(-c3ncc4c(N5CC6CCC(C5)N6)nc(OCC56CCCN5CC(F)C6)nc4c3F)c12 (stereo not given)
viability, T/C (compound 0.0316 µM): 103% and 101% and 90.9% | viability, T/C (compound 0.1 µM): 88.8% and 94.5% and 88.5% | viability, T/C (compound 0.316 µM): 100% and 104% and 103% | viability, T/C (compound 1 µM): 109% and 104% and 115% | viability, T/C (compound 3.16 µM): 105% and 100% (2×) | viability, T/C (compound 10 µM): 96.9% and 95.9% and 104%

pIC50 [1]: 7.02 | pIC50 [2]: 6.95 | pIC50 [3]: 7.25 | pIC50 [4]: 7.57 | pIC50 [29]: 8.02 | pIC50 [30]: > 8.50
Compound: O=C(c1ccc(F)c(F)c1Nc1ccc(I)cc1F)N1CC(O)([C@@H]2CCCCN2)C1 + Cc1c(S(C)(=O)=O)c(-c2cc(F)cc(N3CCN(c4ccc(NS(=O)(=O)c5ccc(NC(CCN6CCC(C(=O)OCCCP(=O)(O)O)CC6)CSc6ccccc6)c(S(=O)(=O)C(F)(F)F)c5)cc4)CC3)c2)c(-c2ccc(Cl)cc2)n1C(C)C
viability, T/C [5]: 92% | viability, T/C [6]: 80.6% | viability, T/C [7]: 61.6% | viability, T/C [8]: 52.2% | viability, T/C [9]: 35.1% | viability, T/C [10]: 28.1% | viability, T/C [11]: 88.2% | viability, T/C [12]: 76.3% | viability, T/C [13]: 64.6% | viability, T/C [14]: 50.5% | viability, T/C [15]: 38.7% | viability, T/C [16]: 24.4% | viability, T/C [17]: 85.7% | viability, T/C [18]: 77.8% | viability, T/C [19]: 51.2% | viability, T/C [20]: 45.2% | viability, T/C [21]: 34.3% | viability, T/C [22]: 24.8% | viability, T/C [23]: 73.4% | viability, T/C [24]: 61.6% | viability, T/C [25]: 47.1% | viability, T/C [26]: 36.7% | viability, T/C [27]: 29.5% | viability, T/C [28]: 20% | viability, T/C (second compound 3.16 µM, first compound 0.00316 µM): 55.3% | viability, T/C (second compound 3.16 µM, first compound 0.01 µM): 51.8% | viability, T/C [31]: 38.6% | viability, T/C [32]: 33.8% | viability, T/C [33]: 22.6% | viability, T/C [34]: 16.6% | viability, T/C (second compound 10 µM, first compound 0.00316 µM): 43.1% | viability, T/C (second compound 10 µM, first compound 0.01 µM): 41.1% | viability, T/C [35]: 34% | viability, T/C [36]: 25.9% | viability, T/C [37]: 16.7% | viability, T/C [38]: 12.3%
